In patent US9855209B1, “Anti-bacterial mouthwash” (KING ABDULAZIZ UNIVERSITY, priority 2017, dated 2018):

Tested on: Salmonella enterica subsp. Enterica serovar Typhimurium (ATCC 29629, TA 1535)
Assay: Ames test
Format: cell-based
Conditions: positive control
Description: The Ames test was followed according to a previously reported procedure (Ames et al, 1973; Mortelmans and Zeiger, 2000). Briefly, the test organism Salmonella enterica subsp. Enterica serovar Typhimurium (ATCC® 29629-Strain Designations: TA 1535), an auxotrophic mutant, was provided by ATCC, Manassas, USA. This auxotrophic isolate requires histidine for its growth, due to a mutation in its DNA. Substances to be tested for their mutagenesis, could be added in the histidine-free medium of the test organism, to monitor their ability to reverse back the mutated Salmonella typhimurium to a prototrophic state, enabling it to grow. The anti-bacterial mouthwash was incorporated in the histidine-free medium used in the Ames test, at four different concentrations namely, 1/100×, 1×, 1.5×, and 2× (where X is the dilution used in mouth rinsing experiments), while another batch of the medium was deprived of the Mouthwash substance. Ethidium bromide, an expected positive inducer of mutations in the test organism, was incorporated in another batch of the same histidine-free medium at two concentrations namely, 20 and 200 nmole. The S. Typhimurium was cultured in triplicate onto the 4 differently supplemented media, and on the 5th control medium that was deprived of supplementation, to observe the growth of this test organism. The bacterium was spread over these media with small amounts of histidine that helps in the initiation of the growth, and once this amino acid is depleted, only the mutated cells by the supplemented substance will be able to synthesize their histidine, and to continue their growth. Thus, mutagenicity is determined in this research from the proportion of the average colony forming units formed on triplicate of the supplemented medium with the anti-bacterial mouthwash versus that formed on triplicate of the non-supplemented medium, with the growth on Ethidium bromide acting as a positive control of the test.
The results of the Ames test in relation to reversion of the S. Typhimurium test organism from its auxotrophic to prototrophic nature is shown in Table 4.

## CC[n+]1c(-c2ccccc2)c2cc(N)ccc2c2ccc(N)cc21 [Ethidium bromide]
20 nmol/plate
  Mean % increase in S. Typhimurium CFU count of triplicate relative to mean triplicate count on minimal Histidine-supplemented medium: 0%
20 nmol/plate, listed as Eth
  Mean % increase in S. Typhimurium CFU count of triplicate relative to mean triplicate count on minimal Histidine-supplemented medium: 0.0%
200 nmol/plate, apparent reversion of mutation (P<0.05)
  Mean % increase in S. Typhimurium CFU count of triplicate relative to mean triplicate count on minimal Histidine-supplemented medium: 12.5%
